Measured values: ChEMBL document CHEMBL4732177 (J Med Chem, 2021)
pEC50, pKi: −log10 of the molar value. Calls of active or inactive are those of the source. The calls are words filed in the database; no cut-off is given here.

Legend:
[1] = biological target: Neurotensin receptor type 1 (Homo sapiens, UniProt P30989); experiment: Displacement of [125I]Tyr3-neurotensin from human recombinant NTS1 stably expressed in CHO cell membranes; design: species or system Cell membrane
[2] = Toxicity in Sprague-Dawley rat assessed as induction of dizziness at 1 microg/kg, IT; conditions: in vivo, icv_or_intrathecal, 0.001 mg/kg, dose 1 µg/kg
[3] = Toxicity in Sprague-Dawley rat assessed as induction of hyperactivity at 1 microg/kg, IT; conditions: in vivo, icv_or_intrathecal, 0.001 mg/kg, dose 1 µg/kg
[4] = Toxicity in Sprague-Dawley rat assessed as induction of ataxia at 1 microg/kg, IT; conditions: in vivo, icv_or_intrathecal, 0.001 mg/kg, dose 1 µg/kg
[5] = Toxicity in Sprague-Dawley rat assessed as induction of drowsiness at 1 microg/kg, IT; conditions: in vivo, icv_or_intrathecal, 0.001 mg/kg, dose 1 µg/kg
Rattus norvegicus [6] = experiment: Antinociceptive activity in Sprague-Dawley rat model of formalin-induced nociception pain assessed as reduction in pain behaviour by measuring less lifting of formalin injected hind paw during acute phase at 1 microg/kg, IT measured for 9 mins; format: functional, organism-based; conditions: dose 1.0 µg/kg
[7] = Toxicity in Sprague-Dawley rat assessed as induction of abnormal gait at 1 microg/kg, IT; conditions: in vivo, icv_or_intrathecal, 0.001 mg/kg, dose 1 µg/kg
Rattus norvegicus [8] = experiment: Antinociceptive activity in Sprague-Dawley rat model of formalin-induced nociception pain assessed as reduction in pain behaviour by measuring less lifting of formalin injected hind paw during inflammatory phase at 1 microg/kg, IT; format: functional, organism-based; conditions: dose 1.0 µg/kg
[9] = Toxicity in Sprague-Dawley rat assessed as induction of tremor at 1 microg/kg, IT; conditions: in vivo, icv_or_intrathecal, 0.001 mg/kg, dose 1 µg/kg
Rattus norvegicus [10] = experiment: Antinociceptive activity in Sprague-Dawley rat model assessed as maximum possible effect at 150 microg/kg, IT measured every 10 mins for 60 mins by radiant heat tail-flick test relative to control; format: functional; conditions: dose 150 µg/kg, 1 h
[11] = biological target: Neurotensin receptor type 2 (Homo sapiens, UniProt O95665); experiment: Binding affinity to NTS2 (unknown origin)
Rattus norvegicus [12] = experiment: Antinociceptive activity in Sprague-Dawley rat model administered subcutaneously and measured every 10 mins for 60 mins by radiant heat tail-flick test; format: functional, organism-based; conditions: dose 1-10 mg/kg
Rattus norvegicus [13] = species on record: Rattus norvegicus; experiment: animal or person; conditions: Sprague-Dawley, sc, 1 h
Description: Antinociceptive activity in Sprague-Dawley rat model assessed as effective dose administered subcutaneously and measured every 10 mins for 60 mins by radiant heat tail-flick test

Rattus norvegicus [14] = experiment: Antinociceptive activity in Sprague-Dawley rat model assessed as maximum possible effect at 10 mg/kg, sc measured every 10 mins for 60 mins by radiant heat tail-flick test relative to control; format: functional; conditions: 1 h
[15] = Stability of compound in rat CSF assessed as half life at 1 mM incubated for 24 hrs by UPLC-MS analysis; format: ADME, tissue-based, Cerebrospinal fluid
Ileum = experiment: Myorelaxant activity in Sprague-Dawley rat ileum assessed as reduction in carbachol-induced contractions by force transducer relaxation assay; format: functional, tissue-based
[16] = Stability of compound in rat plasma assessed as half life at 1 mM incubated for 1 to 20 mins by UPLC-MS analysis; format: ADME, cell-free; conditions: time 1-20 min
[17] = Cardiotoxicity in Sprague-Dawley rat assessed as decrease in mean arterial blood pressure at 0.1 mg/kg, iv measured up to 1000 seconds; format: toxicity, organism-based; conditions: in vivo, time <=1000 sec

Neurotensin receptor type 2, sequence (O95665 whole entry): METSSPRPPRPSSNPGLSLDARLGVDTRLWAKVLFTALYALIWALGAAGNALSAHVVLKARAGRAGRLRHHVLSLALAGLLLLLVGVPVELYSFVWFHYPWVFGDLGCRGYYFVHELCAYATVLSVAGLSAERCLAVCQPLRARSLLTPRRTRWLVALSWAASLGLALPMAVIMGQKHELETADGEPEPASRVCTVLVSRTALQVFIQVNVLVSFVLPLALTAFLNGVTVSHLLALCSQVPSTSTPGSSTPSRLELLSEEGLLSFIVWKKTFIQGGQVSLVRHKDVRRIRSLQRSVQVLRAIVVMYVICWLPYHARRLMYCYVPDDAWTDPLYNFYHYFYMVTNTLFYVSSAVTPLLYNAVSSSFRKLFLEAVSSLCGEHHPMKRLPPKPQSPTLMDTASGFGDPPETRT
Neurotensin receptor type 1, sequence (P30989 whole entry): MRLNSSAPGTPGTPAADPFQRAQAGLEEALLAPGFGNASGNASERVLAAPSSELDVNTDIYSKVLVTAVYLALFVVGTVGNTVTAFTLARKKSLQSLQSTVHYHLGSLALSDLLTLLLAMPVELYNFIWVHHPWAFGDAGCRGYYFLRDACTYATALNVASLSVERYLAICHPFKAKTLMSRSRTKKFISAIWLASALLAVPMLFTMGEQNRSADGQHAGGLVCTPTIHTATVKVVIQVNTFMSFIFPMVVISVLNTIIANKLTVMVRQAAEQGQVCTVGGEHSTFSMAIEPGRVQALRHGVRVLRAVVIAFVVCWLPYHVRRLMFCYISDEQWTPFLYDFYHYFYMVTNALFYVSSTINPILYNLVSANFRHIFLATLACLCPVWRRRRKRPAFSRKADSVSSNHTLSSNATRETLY

CC[C@H](C)[C@H](NC(=O)[C@@H]1Cc2ccc(cc2)OCCCCCC(=O)N[C@H](CCCNC(=N)N)C(=O)N2CCC[C@H]2C(=O)N1)C(=O)N[C@@H](CC(C)C)C(=O)O
pKi [1]: 6.35

CSCC[C@@H]1NC(=O)[C@H](CC(C)C)NC(=O)[C@H](CCCNC(=N)N)NC(=O)[C@H](CO)NC(=O)[C@@H]2CSSC[C@@H]3NC(=O)[C@H](CO)NC(=O)CNC(=O)[C@H]([C@@H](C)O)NC(=O)[C@H](CSSC[C@H](N)C(=O)N[C@@H](CCCCN)C(=O)NCC(=O)N[C@@H](CCCCN)C(=O)NCC(=O)N[C@@H](C)C(=O)N[C@@H](CCCCN)C(=O)N2)NC(=O)[C@H](CSSC[C@@H](C(N)=O)NC(=O)[C@H](CCCCN)NC(=O)CNC(=O)[C@H](CO)NC(=O)[C@H](CCCNC(=N)N)NC3=O)NC(=O)[C@H](CC(=O)O)NC(=O)[C@H](Cc2ccc(O)cc2)NC1=O [ZICONOTIDE]
Activity [2]: Toxic | Activity [3]: Toxic | Activity [4]: Toxic | Activity [5]: Toxic | Activity (Rattus norvegicus [6]): Active | Activity [7]: Toxic | Activity (Rattus norvegicus [8]): Active | Activity [9]: Toxic

CC[C@H](C)[C@H](NC(=O)[C@@H]1Cc2ccc(O)c(c2)C/C=C/CNCCC[C@H](N)C(=O)N[C@@H](CCCCN)C(=O)N2CCC[C@H]2C(=O)N1)C(=O)N[C@@H](CC(C)C)C(=O)O
MPE (Rattus norvegicus [10]): 50% | pKi [11]: 8.35

CC[C@H](C)[C@H](NC(=O)[C@@H]1Cc2ccc(O)c(c2)C/C=C/CCCCCC[C@H](N)C(=O)N[C@@H](CCCCN)C(=O)N2CCC[C@H]2C(=O)N1)C(=O)N[C@@H](CC(C)C)C(=O)O
pKi [11]: 7.62

CN1CC[C@]23c4c5ccc(O)c4O[C@H]2[C@@H](O)C=C[C@H]3[C@H]1C5 [MORPHINE]
Activity (Rattus norvegicus [12]): Dose-dependent effect | ED50 (Rattus norvegicus [13]): 3.6 mg/kg | MPE (Rattus norvegicus [14]): 83.3%

CC[C@H](C)[C@H](NC(=O)[C@H](Cc1ccc(O)cc1)NC(=O)[C@@H]1CCCN1C(=O)[C@H](CCCNC(=N)N)NC(=O)[C@@H](N)CCCNC(=N)N)C(=O)N[C@@H](CC(C)C)C(=O)O
half-life at 1000 µM [15]: 14.9 h | Activity (Ileum): Dose-dependent effect | pEC50 (Ileum): 8.41 | half-life at 1000 µM [16]: 1.6 min | Activity [17]: <= 50 mmHg
